Reference: ChEMBL document CHEMBL3992552, “Mechanisms of action and structure-activity relationships of cytotoxic flavokawain derivatives” (Bioorg Med Chem, 2017)
Activity calls are given as the source filed them. The calls are words filed in the database; no cut-off is given here.

system: PC-3; assay: Cell cycle arrest in human PC3 cells harboring p53 mutant assessed as mitotic index at 10 uM measured after 48 hrs by Hoechst staining based fluorescence assay (reference value: 2.5); assay type: functional; settings: not given

Row | SMILES | Activity_index
1 | COc1cc(OC)c(C(=O)/C=C/c2ccc(Br)cc2)c(OC)c1 | 2.5

system: Huh-7; assay: Cell cycle arrest in human HuH7 cells assessed as accumulation at S phase at 25 uM measured after 48 hrs by Hoechst/BrdU staining based fluorescence assay (reference value: 44%); assay type: functional; settings: not given

Row | SMILES | Activity
2 | COc1cc(OC)c(C(=O)/C=C/c2ccc(Br)cc2)c(OC)c1 | 0.2%

system: HCT-116; assay: Cell cycle arrest in human HCT116 cells assessed as accumulation at G1/S phase by Hoechst staining based fluorescence assay; assay type: functional; settings: not given

Row | SMILES | Activity
3 | COc1cc(OC)c(C(=O)/C=C/c2ccc(Br)cc2)c(OC)c1 | Active

system: Huh-7; assay: Cytotoxicity against human HuH7 cells assessed as cell survival at 50 uM after 48 hrs by Hoechst 33342 staining based assay relative to control; assay type: functional; settings: Huh-7, 48 h, read-out: Survival

Row | SMILES | viability at 50 µM
4 | COc1cc(OC)c(C(=O)/C=C/c2ccc(Br)cc2)c(OC)c1 | 3%

system: not listed separately; assay: Selectivity index, ratio of IC50 for human fibroblasts to IC50 for human PC3 cells; settings: not given

Row | SMILES | Ratio IC50
5 | COc1cc(OC)c(C(=O)/C=C/c2ccc(Br)cc2)c(OC)c1 | >7

system: HaCaT; assay: Cell cycle arrest in human HaCaT cells assessed as accumulation at M phase by Hoechst staining based fluorescence assay; assay type: functional; settings: not given

Row | SMILES | Activity
6 | COc1cc(OC)c(C(=O)/C=C/c2ccc(Br)cc2)c(OC)c1 | Active

system: HCT-116; assay: Induction of apoptosis in human HCT116 cells harboring wild-type p53 assessed as increase in cleaved caspase3 at 2 times IC50 after 48 hrs by Hoechst staining based assay; assay type: functional, cell-based; settings: not given

Row | SMILES | Activity
7 | COc1cc(OC)c(C(=O)/C=C/c2ccc(Br)cc2)c(OC)c1 | Active

system: HCT-116; assay: Cell cycle arrest in human HCT116 cells harboring wild-type p53 assessed as mitotic index at 10 uM measured after 48 hrs by Hoechst staining based fluorescence assay (reference value: 2.3); assay type: functional; settings: not given

Row | SMILES | Activity_index
8 | COc1cc(OC)c(C(=O)/C=C/c2ccc(Br)cc2)c(OC)c1 | 2.8

system: NCI-H727; assay: Cell cycle arrest in human NCI-H727 cells assessed as accumulation at G1/S phase by Hoechst staining based fluorescence assay; assay type: functional; settings: not given

Row | SMILES | Activity
9 | COc1cc(OC)c(C(=O)/C=C/c2ccc(Br)cc2)c(OC)c1 | Active

system: Caco-2; assay: Cytotoxicity against human Caco2 cells assessed as cell viability after 48 hrs by Hoechst 33342 staining based assay; assay type: functional; settings: Caco-2, 48 h

Row | SMILES | IC50
10 | COc1cc(OC)c(C(=O)/C=C/c2ccc(Br)cc2)c(OC)c1 | 6.8 µM

system: not listed separately; assay: Cytotoxicity against human fibroblasts assessed as cell survival at 50 uM after 48 hrs by Hoechst 33342 staining based assay relative to control; set-up: species or system Fibroblast; settings: read-out: Survival

Row | SMILES | viability at 48 h, 50 µM
11 | COc1cc(OC)c(C(=O)/C=C/c2ccc(Br)cc2)c(OC)c1 | 57%

system: NCI-H727; assay: Cytotoxicity against human NCI-H727 cells assessed as cell viability after 48 hrs by Hoechst 33342 staining based assay; assay type: functional; settings: NCI-H727, 48 h

Row | SMILES | IC50
12 | COc1cc(OC)c(C(=O)/C=C/c2ccc(Br)cc2)c(OC)c1 | 11.3 µM

system: HCT-116; assay: Induction of apoptosis in human HCT116 cells harboring wild-type p53 assessed as increase in late apoptosis at 2 times IC50 after 48 hrs by YoPro/propidium iodide/Hoechst staining based assay; assay type: functional, cell-based; settings: not given

Row | SMILES | Activity
13 | COc1cc(OC)c(C(=O)/C=C/c2ccc(Br)cc2)c(OC)c1 | Active

system: NCI-H727; assay: Cell cycle arrest in human NCI-H727 cells harboring p53 mutant assessed as mitotic index at 10 uM measured after 48 hrs by Hoechst staining based fluorescence assay (reference value: 1.1); assay type: functional; settings: not given

Row | SMILES | Activity_index
14 | COc1cc(OC)c(C(=O)/C=C/c2ccc(Br)cc2)c(OC)c1 | 1

system: Caco-2; assay: Cell cycle arrest in human Caco2 cells assessed as accumulation at M phase by Hoechst staining based fluorescence assay; assay type: functional; settings: not given

Row | SMILES | Activity
15 | COc1cc(OC)c(C(=O)/C=C/c2ccc(Br)cc2)c(OC)c1 | Active

system: Fibroblast; assay: Cytotoxicity against human fibroblasts assessed as cell viability after 48 hrs by Hoechst 33342 staining based assay; settings: not given

Row | SMILES | IC50
16 | COc1cc(OC)c(C(=O)/C=C/c2ccc(Br)cc2)c(OC)c1 | > 20 µM

system: Caco-2; assay: Cell cycle arrest in human Caco2 cells assessed as accumulation at S phase at 10 uM measured after 48 hrs by Hoechst/BrdU staining based fluorescence assay (reference value: […]); assay type: functional; settings: not given

Row | SMILES | Activity
17 | COc1cc(OC)c(C(=O)/C=C/c2ccc(Br)cc2)c(OC)c1 | 36%

system: not listed separately; assay: Selectivity index, ratio of IC50 for human fibroblasts to IC50 for human NCI-H727 cells; settings: not given

Row | SMILES | Ratio IC50
18 | COc1cc(OC)c(C(=O)/C=C/c2ccc(Br)cc2)c(OC)c1 | >4.4

system: MCF7; assay: Induction of apoptosis in human MCF7 cells harboring wild-type p53 assessed as upregulation of p21 measured after 48 hrs by Hoechst staining based fluorescence assay; assay type: functional, cell-based; settings: not given

Row | SMILES | Activity
19 | COc1cc(OC)c(C(=O)/C=C/c2ccc(Br)cc2)c(OC)c1 | Active

system: PC-3; assay: Induction of apoptosis in human PC3 cells harboring p53 mutant assessed as increase in early apoptosis at 2 times IC50 after 48 hrs by YoPro/propidium iodide/Hoechst staining based assay; assay type: functional, cell-based; settings: not given

Row | SMILES | Activity
20 | COc1cc(OC)c(C(=O)/C=C/c2ccc(Br)cc2)c(OC)c1 | Active

system: HCT-116; assay: Induction of apoptosis in human HCT116 cells harboring wild-type p53 assessed as upregulation of cyclinB1 measured after 48 hrs by Hoechst staining based assay; assay type: functional, cell-based; settings: not given

Row | SMILES | Activity
21 | COc1cc(OC)c(C(=O)/C=C/c2ccc(Br)cc2)c(OC)c1 | Active

system: NCI-H727; assay: Cell cycle arrest in human NCI-H727 cells harboring p53 mutant assessed as mitotic index at 25 uM measured after 48 hrs by Hoechst staining based fluorescence assay (reference value: 1.1); assay type: functional; settings: not given

Row | SMILES | Activity_index
22 | COc1cc(OC)c(C(=O)/C=C/c2ccc(Br)cc2)c(OC)c1 | 0.7

system: HCT-116; assay: Induction of apoptosis in human HCT116 cells harboring wild-type p53 assessed as increase in early apoptosis at 2 times IC50 after 48 hrs by YoPro/propidium iodide/Hoechst staining based assay; assay type: functional, cell-based; settings: not given

Row | SMILES | Activity
23 | COc1cc(OC)c(C(=O)/C=C/c2ccc(Br)cc2)c(OC)c1 | Active

system: PC-3; assay: Cytotoxicity against human PC3 cells assessed as cell survival at 50 uM after 48 hrs by Hoechst 33342 staining based assay relative to control; assay type: functional; settings: PC-3, 48 h, read-out: Survival

Row | SMILES | viability at 50 µM
24 | COc1cc(OC)c(C(=O)/C=C/c2ccc(Br)cc2)c(OC)c1 | 10%

system: MCF7; assay: Induction of apoptosis in human MCF7 cells harboring wild-type p53 assessed as upregulation of cyclinB1 measured after 18 hrs by Hoechst staining based assay; assay type: functional, cell-based; settings: not given

Row | SMILES | Activity
25 | COc1cc(OC)c(C(=O)/C=C/c2ccc(Br)cc2)c(OC)c1 | Active

system: not listed separately; assay: Selectivity index, ratio of IC50 for human fibroblasts to IC50 for human HaCaT cells; settings: not given

Row | SMILES | Ratio IC50
26 | COc1cc(OC)c(C(=O)/C=C/c2ccc(Br)cc2)c(OC)c1 | >5.6

system: MDA-MB-231; assay: Cell cycle arrest in human MDA-MB-231 cells harboring p53 mutant assessed as mitotic index at 25 uM measured after 48 hrs by Hoechst staining based fluorescence assay (reference value: 2.1); assay type: functional; settings: not given

Row | SMILES | Activity_index
27 | COc1cc(OC)c(C(=O)/C=C/c2ccc(Br)cc2)c(OC)c1 | 3.4

system: Huh-7; assay: Cytotoxicity against human HuH7 cells assessed as cell viability after 48 hrs by Hoechst 33342 staining based assay; assay type: functional; settings: Huh-7, 48 h

Row | SMILES | IC50
28 | COc1cc(OC)c(C(=O)/C=C/c2ccc(Br)cc2)c(OC)c1 | 13.9 µM

system: Caco-2; assay: Cell cycle arrest in human Caco2 cells assessed as mitotic index at 10 uM measured after 48 hrs by Hoechst staining based fluorescence assay (reference value: 3.6); assay type: functional; settings: not given

Row | SMILES | Activity_index
29 | COc1cc(OC)c(C(=O)/C=C/c2ccc(Br)cc2)c(OC)c1 | 30.7

system: PC-3; assay: Induction of apoptosis in human PC3 cells harboring p53 mutant assessed as increase in cleaved caspase3 at 2 times IC50 after 48 hrs by Hoechst staining based assay; assay type: functional, cell-based; settings: not given

Row | SMILES | Activity
30 | COc1cc(OC)c(C(=O)/C=C/c2ccc(Br)cc2)c(OC)c1 | Active

system: MDA-MB-231; assay: Induction of apoptosis in human MDA-MB-231 cells harboring p53 mutant assessed as increase in early apoptosis at 2 times IC50 after 24 hrs by YoPro/propidium iodide/Hoechst staining based assay; assay type: functional, cell-based; settings: not given

Row | SMILES | Activity
31 | COc1cc(OC)c(C(=O)/C=C/c2ccc(Br)cc2)c(OC)c1 | Active

system: HaCaT; assay: Cell cycle arrest in human HaCaT cells harboring […] p53 assessed as mitotic index at 25 uM measured after 48 hrs by Hoechst staining based fluorescence assay (reference value: 2.6); assay type: functional; settings: not given

Row | SMILES | Activity_index
32 | COc1cc(OC)c(C(=O)/C=C/c2ccc(Br)cc2)c(OC)c1 | 0

system: PC-3; assay: Cytotoxicity against human PC3 cells assessed as cell viability after 48 hrs by Hoechst 33342 staining based assay; assay type: functional; settings: PC-3, 48 h

Row | SMILES | IC50
33 | COc1cc(OC)c(C(=O)/C=C/c2ccc(Br)cc2)c(OC)c1 | 7.1 µM

system: MDA-MB-231; assay: Induction of apoptosis in human MDA-MB-231 cells harboring p53 mutant assessed as increase in cleaved caspase3 at 2 times IC50 after 24 hrs by Hoechst staining based assay; assay type: functional, cell-based; settings: not given

Row | SMILES | Activity
34 | COc1cc(OC)c(C(=O)/C=C/c2ccc(Br)cc2)c(OC)c1 | Active

system: PC-3; assay: Cell cycle arrest in human PC3 cells harboring p53 mutant assessed as mitotic index at 25 uM measured after 48 hrs by Hoechst staining based fluorescence assay (reference value: 2.5); assay type: functional; settings: not given

Row | SMILES | Activity_index
35 | COc1cc(OC)c(C(=O)/C=C/c2ccc(Br)cc2)c(OC)c1 | 0

system: Caco-2; assay: Cell cycle arrest in human Caco2 cells assessed as mitotic index at 25 uM measured after 48 hrs by Hoechst staining based fluorescence assay (reference value: 3.6); assay type: functional; settings: not given

Row | SMILES | Activity_index
36 | COc1cc(OC)c(C(=O)/C=C/c2ccc(Br)cc2)c(OC)c1 | 1.4

system: Huh-7; assay: Cell cycle arrest in human HuH7 cells assessed as accumulation at S phase at 10 uM measured after 48 hrs by Hoechst/BrdU staining based fluorescence assay (reference value: 44%); assay type: functional; settings: not given

Row | SMILES | Activity
37 | COc1cc(OC)c(C(=O)/C=C/c2ccc(Br)cc2)c(OC)c1 | 46%

system: MDA-MB-231; assay: Induction of apoptosis in human MDA-MB-231 cells harboring p53 mutant assessed as upregulation of cyclinB1 after 18 hrs by Hoechst staining based assay; assay type: functional, cell-based; settings: not given

Row | SMILES | Activity
38 | COc1cc(OC)c(C(=O)/C=C/c2ccc(Br)cc2)c(OC)c1 | Active

system: HCT-116; assay: Cell cycle arrest in human HCT116 cells harboring wild-type p53 assessed as accumulation at S phase at 10 uM measured after 48 hrs by Hoechst/BrdU staining based fluorescence assay (reference value: 68.4%); assay type: functional; settings: not given

Row | SMILES | Activity
39 | COc1cc(OC)c(C(=O)/C=C/c2ccc(Br)cc2)c(OC)c1 | 68%
